Experimental data reported in PubChem BioAssay (NCI).
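Protocol summary: plate cells (96-well), add compound at 5 concentrations, incubate 48 h, interpolate endpoints linearly. The concentration for 50% growth inhibition is given as GI50. TGI is the concentration that stops growth completely.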

Legend:
Experiment in all cases: inhibition of tumour cell growth, NCI panel, 48 h
[1] = tested on: 786-0 renal
[2] = tested on: BT-549 breast
[3] = tested on: HL-60(TB) leukemia
[4] = tested on: HOP-62 NSCLC
[5] = tested on: HT29 colon
[6] = tested on: NCI-H460 lung
[7] = tested on: OVCAR-3 ovarian
[8] = tested on: OVCAR-8 ovarian
[9] = tested on: RXF 393 renal
[10] = tested on: UACC-62 melanoma

Row | SMILES | GI50 [1] [µM] | TGI [1] [µM] | GI50 [2] [µM] | TGI [2] [µM] | GI50 [3] [µM] | TGI [3] [µM] | GI50 [4] [µM] | TGI [4] [µM] | GI50 [5] [µM] | TGI [5] [µM] | GI50 [6] [µM] | TGI [6] [µM] | GI50 [7] [µM] | TGI [7] [µM] | GI50 [8] [µM] | TGI [8] [µM] | GI50 [9] [µM] | TGI [9] [µM] | GI50 [10] [µM] | TGI [10] [µM]
1 | COc1ccc(/C=c2/sc3n(c2=O)C(c2ccc(OC)c(OC)c2)C2=C(N=3)c3cc(F)ccc3OC2)cc1 (centres undefined) | 42.1 | > 100 | 46.2 | > 100 | 33.1 | > 94.6 | 37.7 | > 100 | 16.2 | > 100 | 19.3 | > 100 | 2.54 | 14.1 | 40.2 | > 100 | > 100 | > 100 | 17.9 | > 63.3
2 | COc1ccccc1/C=C/c1cnccn1 |  | > 10 |  | > 10 |  | > 10 |  | > 10 |  | > 10 |  | > 10 |  | > 10 |  | > 10 |  | > 10 |  | > 10
3 | Cc1sc2nc(NCCc3c[nH]c4ccc(Cl)cc34)[nH]c(=O)c2c1C | 2.39 | 6.23 | 2.55 | 9.95 | 2.34 | 5.91 | 2.52 | 10.4 | 3.06 | 10.8 | 2.54 | 7.95 | 3.26 | 12.7 | 2.12 | 5.69 | 1.79 | 3.41 | 2.96 | 12.7
4 | CCCS(=O)(=O)Nc1ccc(Nc2c3ccccc3nc3ccccc23)c(OC)c1 |  | 3.49 |  | 9.99 |  | 0.45 |  | 5.72 |  | 7.16 |  | 2.6 |  | 7.86 |  | 5.82 |  | 14.9 |  | 13.1
5 | COc1ccc(-n2cc(-c3ccc(Cl)c(Cl)c3)nc2SCc2cccc(C#N)c2)cc1 | 11.8 | 40.2 | 21.4 | > 100 | > 100 | > 100 | 24.7 | > 100 | 4.7 | > 100 | 51.5 | > 100 | 17 | > 100 | 18.6 | > 100 | 13.6 | 41 | 19.1 | > 100
6 | CC(C)c1ccccc1S(=O)c1ccccc1C(C)(C)O (centres undefined) |  | > 100 |  | > 100 |  | > 100 |  | 48.7 |  | > 100 |  | > 100 |  | > 100 |  | > 100 |  | > 100 |  | > 100
7 | Nc1nc(Br)nc2c1ncn2C1CC(O)C(CO)O1 (centres undefined) | 34.2 | > 100 | 3.52 | > 100 | 0.0835 |  | 4.68 | > 100 | 47.7 | > 100 | 61 | > 100 | > 100 | > 100 | 0.18 | > 100 | 32.8 | > 100 | 2.4 | > 100
8 | CN1CCc2c(Sc3ccc(C(=O)NO)cc3)c3ccccc3n2C1 | 4.12 | 15.3 | 2.39 | 6.19 | 2.95 | 8.09 | 1.97 | 6.12 | 2.83 | 12.2 | 2.34 | 7.73 | 2.16 | 6.74 | 1.69 | 5.42 | 2.37 | 9.51 | 1.62 | 3.65
9 | Cc1ccc(N(CSc2ccc(Cl)cc2)CSc2ccc(Cl)cc2)cc1 | 1.66 | 7.66 | 0.334 | 1.54 | 1.65 | 3.65 | 2.71 | 16.4 | 1.85 | 24.1 | 0.575 | > 100 | 2.75 | 11.5 | 1.55 | > 100 | 1.73 | 7.57 | 0.818 | 2.91
10 | CN(C)Cc1c[nH]c2c1C(=O)c1c(c(O)c3ccccc3c1O)C2=O | 10.5 | 33.6 | 13.7 | 26.5 | 17.2 | 75.7 | 10.7 | 27.9 | 16.7 | > 100 | 3.54 | 16 | 2.44 | 13.9 | 8.56 | 29.8 | 9.48 | 25.5 | 16.3 | 30.1
11 | O=C(O)c1cc(O)c2c(c1)C(C1c3cc(C(=O)O)cc(O)c3C(=O)c3c(OC4OC(CO)C(O)C(O)C4O)cccc31)c1cccc(OC3OC(CO)C(O)C(O)C3O)c1C2=O (centres undefined) | > 100 | > 100 | > 100 | > 100 | > 100 | > 100 | > 100 | > 100 | > 100 | > 100 | > 100 | > 100 | > 100 | > 100 | > 100 | > 100 | > 100 | > 100 | > 100 | > 100
12 | Cc1c[n+](Cc2ccc3ccccc3c2)cn1Cc1ccc2ccccc2c1 | 1.71 | 3.63 | 1.56 | 3.12 | 0.514 | 2.34 | 1.61 | 3.8 | 1.07 | 2.53 | 1.72 | 3.65 | 1.04 | 2.28 | 1.89 | 4.01 | 1.62 | 3.47 | 1.41 | 3.12
